The values below come from patent EP0361301A1, “Microbicidal compositions for the disinfection of dental impression materials” (Merz & Co. GmbH & Co., priority 1988, dated 1990).

For the data set, the system named is Human Immunodeficiency Virus (HIV bzw. auch HTLV III oder LAV). In words: HIV inactivation in suspension test versus 0.7 % formaldehyde. The note with it: 0,7%ig. The source says: Die Wirksamkeit der erfindungsgemässen Zubereitungen gegen den eine AIDS-Infektion verursachenden Human Immunodeficiency Virus (HIV bzw. auch HTLV III oder LAV) im Vergleich zu 0,7%igem Formaldehyd ergab eine um eine Zehnerpotenz höhere Inaktivierung des HIV bei 1%iger Konzentration der erfindungsgemässen Zubereitung 1 in nur 5 Minuten.

Take `C=O` [Formaldehyd]: the “toxischer Effekt im Suspensionsversuch” value is “toxischen Effektes”.
